Test results reported in PubChem BioAssay AID330 (DTP/NCI, 2004).
Several values for one entry are separate records, joined by “and”; a condition that tells them apart may be missing. Equal values may be shown once. Inconclusive results and toxic doses are left out.

Tested on: P388 leukemia ip, CD2F1 mice, survival T/C
Test: NCI In Vivo Anticancer Drug Screen. Data for tumor model P388 Leukemia (intraperitoneal) in CD2F1 (CDF1) mice
Settings: endpoint: median survival time, higher = longer survival
Summary of the method: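 Mice carrying the transplanted tumor received test compound or vehicle. Survival was recorded in each group, and the value is the treated-group measurement divided by that of the vehicle-treated control group.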

[1] = dose: 100.0 mg/kg/injection, schedule: Q04DX003 (ip), vehicle: saline with Tween-80
[2] = dose: 200.0 mg/kg/injection, schedule: Q04DX003 (ip), vehicle: saline with Tween-80
[3] = dose: 50.0 mg/kg/injection, schedule: Q01DX009 (ip), vehicle: Klucel (hydroxypropylcellulose) (HPC)
[4] = dose: 100.0 mg/kg/injection, schedule: Q01DX009 (ip), vehicle: Klucel (hydroxypropylcellulose) (HPC)
[5] = dose: 200.0 mg/kg/injection, schedule: Q01DX009 (ip), vehicle: Klucel (hydroxypropylcellulose) (HPC)
[6] = dose: 60.0 mg/kg/injection, schedule: Q01DX005 (ip), vehicle: Klucel (hydroxypropylcellulose) (HPC)
[7] = dose: 120.0 mg/kg/injection, schedule: Q01DX005 (ip), vehicle: Klucel (hydroxypropylcellulose) (HPC)
[8] = dose: 240.0 mg/kg/injection, schedule: Q01DX005 (ip), vehicle: Klucel (hydroxypropylcellulose) (HPC)
[9] = dose: 240.0 mg/kg/injection, schedule: Q01DX005 (ip), vehicle: saline with Tween-80
[10] = dose: 12.5 mg/kg/injection, schedule: Q01DX009 (ip), vehicle: water
[11] = dose: 25.0 mg/kg/injection, schedule: Q01DX009 (oral), vehicle: water
[12] = dose: 50.0 mg/kg/injection, schedule: Q01DX009 (ip), vehicle: water
[13] = dose: 50.0 mg/kg/injection, schedule: Q01DX009 (ip), vehicle: saline
[14] = dose: 100.0 mg/kg/injection, schedule: Q01DX009 (ip), vehicle: saline
[15] = dose: 200.0 mg/kg/injection, schedule: Q01DX009 (ip), vehicle: saline

In the case of CC(=O)OCC1OC(N2C(=O)c3ccccc3S2(=O)=O)C(OC(C)=O)C(OC(C)=O)C1OC(C)=O (stereo unspecified), the T/C (dose: 100.0 mg/kg/injection, schedule: Q04DX002 (ip), vehicle: saline with Tween-80) is reported as 100 % of control, the T/C (dose: 200.0 mg/kg/injection, schedule: Q04DX002 (ip), vehicle: saline with Tween-80) is reported as 91 % of control and the T/C (dose: 400.0 mg/kg/injection, schedule: Q04DX002 (ip), vehicle: saline with Tween-80) is reported as 96 % of control.
For C/C(=C\N1CCN(c2ccc(Cl)cc2)C(C)C1)C(=O)c1ccccc1 (stereo unspecified), the T/C [1] was 94 % of control and the T/C [2] was 88 % of control.
CSc1cccc(NC(=O)OCCOc2ccc(Cl)c(C)c2)c1 was tested, and the T/C [3] was 92 % of control, the T/C [4] was 97 % of control and the T/C [5] was 92 % of control.
NCCC1CCCCN1 (stereo unspecified) was tested, and the T/C (dose: 50.0 mg/kg/injection, schedule: Q01DX001 (ip), vehicle: saline) was 95 % of control, the T/C (dose: 100.0 mg/kg/injection, schedule: Q01DX001 (ip), vehicle: saline) was 105 % of control and the T/C (dose: 200.0 mg/kg/injection, schedule: Q01DX001 (ip), vehicle: saline) was 105 % of control.
With CC(=S)N(c1ccccc1)c1ccccc1 the T/C [6] was 101 % of control, the T/C [7] was 96 % of control and the T/C [8] was 93 % of control.
With Nc1ncnc(N)c1NC(=O)c1ccccc1 the T/C (dose: 60.0 mg/kg/injection, schedule: Q01DX005 (ip), vehicle: suspension in saline) was 98 % of control and the T/C (dose: 120.0 mg/kg/injection, schedule: Q01DX005 (ip), vehicle: suspension in saline) was 106 % of control.
For Cc1c(C(N)=O)c(NC=O)n(-c2ccccc2)c1C, the T/C (dose: 60.0 mg/kg/injection, schedule: Q01DX005 (ip), vehicle: saline with Tween-80) was 100 % of control, the T/C (dose: 120.0 mg/kg/injection, schedule: Q01DX005 (ip), vehicle: saline with Tween-80) was 99 % of control and the T/C [9] was 93 % of control.
CC(C)(C#N)OC(=O)c1cccc(C(=O)OC(C)(C)C#N)c1Sc1ccccc1 was tested, and the T/C (dose: 25.0 mg/kg/injection, schedule: Q01DX001 (ip), vehicle: other) was 99 % of control, the T/C (dose: 50.0 mg/kg/injection, schedule: Q01DX001 (ip), vehicle: other) was 105 % of control and the T/C (dose: 100.0 mg/kg/injection, schedule: Q01DX001 (ip), vehicle: other) was 98 % of control and 105 % of control.
CC1(C)OC2OC(/C=N\NC(=O)c3cc4cc(OCc5ccccc5)ccc4[nH]3)C3OC(C)(C)OC3C2O1 (stereo unspecified) was tested, and the T/C (dose: 50.0 mg/kg/injection, schedule: Q01DX005 (ip), vehicle: Klucel (hydroxypropylcellulose) (HPC)) was 102 % of control, the T/C (dose: 100.0 mg/kg/injection, schedule: Q01DX005 (ip), vehicle: Klucel (hydroxypropylcellulose) (HPC)) was 104 % of control and the T/C (dose: 200.0 mg/kg/injection, schedule: Q01DX005 (ip), vehicle: Klucel (hydroxypropylcellulose) (HPC)) was 102 % of control.
For NCCCCC(C(=O)NC(Cc1ccccc1)C(=O)O)N(C(=O)OCc1ccccc1)C(=O)OCc1ccccc1 (stereo unspecified), the T/C (dose: 50.0 mg/kg/injection, schedule: Q01DX005 (ip), vehicle: saline with Tween-80) was 96 % of control, the T/C (dose: 100.0 mg/kg/injection, schedule: Q01DX005 (ip), vehicle: saline with Tween-80) was 101 % of control and the T/C (dose: 200.0 mg/kg/injection, schedule: Q01DX005 (ip), vehicle: saline with Tween-80) was 92 % of control.
In the case of CCOC(=O)C1c2cccc(O)c2CCN1C(C)=O (stereo unspecified), the T/C [6] is reported as 100 % of control, the T/C [7] is reported as 100 % of control and the T/C [8] is reported as 98 % of control.
CCOC(=O)C(N)CSC(c1ccccc1)(c1ccccc1)c1ccccc1 (stereo unspecified) was tested, and the T/C [10] was 117 % of control and 98 % of control, the T/C [11] was 114 % of control and the T/C [12] was 155 % of control. The T/C (dose: 200.0 mg/kg/injection, schedule: Q04DX003 (ip), vehicle: saline) was 180 % of control.
With O=C1C=CC(Nc2cc(Cl)ccc2Cl)C1Nc1cc(Cl)ccc1Cl (stereo unspecified) the T/C (dose: 1.88 mg/kg/injection, schedule: Q01DX005 (ip), vehicle: saline with Tween-80) was 99 % of control, the T/C (dose: 3.75 mg/kg/injection, schedule: Q01DX005 (ip), vehicle: saline with Tween-80) was 97 % of control and the T/C (dose: 7.5 mg/kg/injection, schedule: Q01DX005 (ip), vehicle: saline with Tween-80) was 87 % of control and 93 % of control. The T/C [9] was 86 % of control and 89 % of control.
O=c1c2ccccc2ncn1CC1(O)CC2NCCCC2O1 (stereo unspecified) was tested, and the T/C (dose: 2.0 mg/kg/injection, schedule: Q01DX009 (ip), vehicle: distilled water + Tween-80) was 115 % of control, the T/C (dose: 4.0 mg/kg/injection, schedule: Q01DX009 (ip), vehicle: distilled water + Tween-80) was 117 % of control and the T/C (dose: 5.0 mg/kg/injection, schedule: Q01DX009 (ip), vehicle: Klucel (hydroxypropylcellulose) (HPC)) was 116 % of control. For the same molecule, the T/C (dose: 8.0 mg/kg/injection, schedule: Q01DX009 (ip), vehicle: distilled water + Tween-80) was 102 % of control, the T/C (dose: 10.0 mg/kg/injection, schedule: Q01DX009 (ip), vehicle: Klucel (hydroxypropylcellulose) (HPC)) was 107 % of control and the T/C (dose: 16.0 mg/kg/injection, schedule: Q01DX009 (ip), vehicle: distilled water + Tween-80) was 117 % of control. For the same molecule, the T/C (dose: 20.0 mg/kg/injection, schedule: Q01DX009 (ip), vehicle: Klucel (hydroxypropylcellulose) (HPC)) was 98 % of control.
NC(CO)C(=O)O (stereo unspecified) was tested, and the T/C (dose: 12.5 mg/kg/injection, schedule: Q01DX009 (ip), vehicle: saline with Tween-80) was 102 % of control, the T/C (dose: 25.0 mg/kg/injection, schedule: Q01DX009 (ip), vehicle: saline with Tween-80) was 105 % of control and the T/C (dose: 25.0 mg/kg/injection, schedule: Q01DX009 (ip), vehicle: saline) was 110 % of control. For the same molecule, the T/C (dose: 50.0 mg/kg/injection, schedule: Q01DX009 (ip), vehicle: saline with Tween-80) was 114 % of control, the T/C [13] was 112 % of control [middle of 4 runs] and the T/C [14] was 104 % of control [middle of 4 runs]. The T/C [1] was 99 % of control, the T/C [15] was 110 % of control [middle of 4 runs] and the T/C [2] was 97 % of control. The T/C (dose: 400.0 mg/kg/injection, schedule: Q04DX003 (ip), vehicle: saline with Tween-80) was 100 % of control.
With O=C(O)CCc1cccnc1 the T/C (dose: 266.0 mg/kg/injection, schedule: Q01DX009 (ip), vehicle: saline with Tween-80) was 105 % of control and the T/C (dose: 400.0 mg/kg/injection, schedule: Q01DX009 (ip), vehicle: saline with Tween-80) was 115 % of control.
With Cc1c(N)nc(C(CC(N)=O)NCC(N)C(N)=O)nc1C(=O)NC(C(=O)NC(C)C(O)C(C)C(=O)NC(C(=O)NCCc1nc(-c2nc(C(=O)NCCCNCCCCN)cs2)cs1)C(C)O)C(OC1OC(CO)C(O)C(O)C1OC1OC(CO)C(O)C(OC(N)=O)C1O)c1cnc[nH]1 (stereo unspecified) the T/C (dose: 12.5 mg/kg/injection, schedule: Q01DX005 (ip), vehicle: saline) was 117 % of control and the T/C (dose: 100.0 mg/kg/injection, schedule: Q01DX005 (ip), vehicle: saline) was 104 % of control.
O=C1C(Cl)=C(Cl)C(=O)C2=C1C1c3ccccc3C2c2ccccc21 was tested, and the T/C (dose: 100.0 mg/kg/injection, schedule: Q01DX009 (ip), vehicle: saline sonified) was 105 % of control, the T/C (dose: 200.0 mg/kg/injection, schedule: Q01DX009 (ip), vehicle: saline sonified) was 110 % of control and the T/C (dose: 400.0 mg/kg/injection, schedule: Q01DX009 (ip), vehicle: saline sonified) was 100 % of control.
In the case of O=C1C(=O)c2ccccc2C(O)=C1CC=C(Cl)Cl, the T/C (dose: 6.2 mg/kg/injection, schedule: Q01DX009 (ip), vehicle: water) is reported as 120 % of control, the T/C [10] is reported as 120 % of control and the T/C (dose: 25.0 mg/kg/injection, schedule: Q01DX009 (ip), vehicle: water) is reported as 110 % of control. The T/C [11] was 105 % of control, the T/C [12] was 120 % of control and the T/C (dose: 50.0 mg/kg/injection, schedule: Q01DX009 (oral), vehicle: water) was 120 % of control. The T/C (dose: 100.0 mg/kg/injection, schedule: Q01DX009 (oral), vehicle: water) was 120 % of control.
For O=C(O)CC12CC3CC(CC(O)(C3)C1)C2, the T/C [3] was 100 % of control, the T/C [4] was 109 % of control and the T/C [5] was 90 % of control.
For COc1ccc2c(c1)CCC(c1nc3cccc([N+](=O)[O-])c3[nH]c1=O)=C2O, the T/C (dose: 7.5 mg/kg/injection, schedule: Q01DX005 (ip), vehicle: Klucel + Tween-80) was 91 % of control, the T/C (dose: 15.0 mg/kg/injection, schedule: Q01DX005 (ip), vehicle: Klucel + Tween-80) was 94 % of control and the T/C (dose: 30.0 mg/kg/injection, schedule: Q01DX005 (ip), vehicle: Klucel + Tween-80) was 92 % of control.
With CCCCCCC(=O)/C=C/c1ccccc1O the T/C [13] was 108 % of control, the T/C [14] was 99 % of control and the T/C [15] was 112 % of control.
For [Cl][Cu][Cl].c1ccc2c(c1)Sc1ccccc1[N+]2=c1ccc2nc3ccccc3sc-2c1, the T/C [6] was 87 % of control and the T/C [7] was 95 % of control.
